Where two headings read alike, the source gives them in different places.
System: non-gonococcal Neisseria
Test: MIC determination for non-gonococcal Neisseria, agar dilution
Type: cell-based, Neisseria species
Conditions: read-out: Minimum inhibitory concentration
Excerpt: The 2024 WHO N. gonorrhoeae reference strains were used for quality control. Only whole MIC doubling dilutions are reported. Clinical breakpoints or the epidemiological cutoff (ECOFF, to indicate azithromycin resistance) from EUCAST (v14.0, https://www.eucast.org/clinical_breakpoints) were used to classify isolates as antimicrobial susceptible or resistant. […] Two times the standard inoculum defined by CLSI was used to establish consistent growth in untreated control samples for some strains. In vitro time-kill assays were performed according to CLSI guidelines[65] using Columbia Broth (BD Difco) supplemented with 1% IsoVitaleX Enrichment (BD). Viable bacterial counts were generated by plating 10-fold serially diluted samples on GC agar plates containing 1% IsoVitaleX Enrichment (BD).

Measured: MIC

Cc1c(CN(C)C(=O)/C=C/c2cnc3c(c2)N[C@H](C)[C@H](O)C(=O)N3)oc2ccccc12 [Debio 1453]
0.5 µg/mL: Neisseria macacae 3, Replicate 3 | Neisseria macacae 6, Consensus | Neisseria macacae 6, Replicate 2 | Neisseria macacae 6, Replicate 3 | Neisseria macacae 7, Consensus | Neisseria macacae 7, Replicate 2 | Neisseria macacae 7, Replicate 3 | Neisseria mucosa 1, Replicate 2
0.032 µg/mL: Neisseria lactamica 1, Replicate 3 | Neisseria lactamica 5, Replicate 1 | Neisseria lactamica 6, Consensus | Neisseria lactamica 6, Replicate 1 | Neisseria lactamica 6, Replicate 2 | Neisseria lactamica 6, Replicate 3 | Neisseria lactamica 7, Consensus | Neisseria lactamica 7, Replicate 1 | Neisseria lactamica 7, Replicate 2 | Neisseria lactamica 8, Consensus | Neisseria lactamica 8, Replicate 1 | Neisseria lactamica 8, Replicate 2 | Neisseria lactamica 9, Replicate 2 | Neisseria lactamica 10, Consensus | Neisseria lactamica 10, Replicate 1 | Neisseria lactamica 10, Replicate 3 | Neisseria lactamica 11, Consensus | Neisseria lactamica 11, Replicate 1 | Neisseria lactamica 11, Replicate 2 | Neisseria lactamica 11, Replicate 3 | Neisseria meningitidis gr 29E, Replicate 2 | Neisseria meningitidis gr A, Consensus | Neisseria meningitidis gr A, Replicate 1 | Neisseria meningitidis gr A, Replicate 2 | Neisseria meningitidis gr A, Replicate 3 | Neisseria meningitidis gr C, Consensus | Neisseria meningitidis gr C, Replicate 1 | Neisseria meningitidis gr C, Replicate 2 | Neisseria meningitidis gr C, Replicate 3 | Neisseria meningitidis gr Z, Replicate 1 | Neisseria mucosa 3, Consensus | Neisseria mucosa 3, Replicate 1 | Neisseria mucosa 3, Replicate 2
0.25 µg/mL: Neisseria macacae 3, Consensus | Neisseria macacae 3, Replicate 1 | Neisseria macacae 3, Replicate 2 | Neisseria macacae 6, Replicate 1 | Neisseria macacae 7, Replicate 1 | Neisseria mucosa 1, Consensus | Neisseria mucosa 1, Replicate 1 | Neisseria mucosa 1, Replicate 3
0.016 µg/mL: Neisseria lactamica 3, Consensus | Neisseria lactamica 3, Replicate 1 | Neisseria lactamica 3, Replicate 2 | Neisseria lactamica 3, Replicate 3 | Neisseria lactamica 5, Consensus | Neisseria lactamica 5, Replicate 2 | Neisseria lactamica 5, Replicate 3 | Neisseria lactamica 10, Replicate 2 | Neisseria meningitidis gr B, Consensus | Neisseria meningitidis gr B, Replicate 1 | Neisseria meningitidis gr B, Replicate 2 | Neisseria meningitidis gr B, Replicate 3 | Neisseria meningitidis gr X, Consensus | Neisseria meningitidis gr X, Replicate 1 | Neisseria meningitidis gr X, Replicate 2 | Neisseria meningitidis gr X, Replicate 3 | Neisseria meningitidis gr Y, Replicate 1 | Neisseria meningitidis gr Z, Consensus | Neisseria meningitidis gr Z, Replicate 2 | Neisseria meningitidis gr Z, Replicate 3
2 µg/mL: Neisseria macacae 1, Consensus | Neisseria macacae 1, Replicate 2 | Neisseria macacae 1, Replicate 3 | Neisseria macacae 2, Consensus | Neisseria macacae 2, Replicate 1 | Neisseria macacae 2, Replicate 2 | Neisseria macacae 2, Replicate 3 | Neisseria macacae 4, Consensus | Neisseria macacae 4, Replicate 2 | Neisseria macacae 4, Replicate 3 | Neisseria macacae 5, Consensus | Neisseria macacae 5, Replicate 1 | Neisseria macacae 5, Replicate 2 | Neisseria macacae 5, Replicate 3
0.064 µg/mL: Neisseria lactamica 2, Consensus | Neisseria lactamica 2, Replicate 1 | Neisseria lactamica 2, Replicate 2 | Neisseria lactamica 2, Replicate 3 | Neisseria lactamica 4, Consensus | Neisseria lactamica 4, Replicate 1 | Neisseria lactamica 4, Replicate 2 | Neisseria lactamica 4, Replicate 3 | Neisseria lactamica 7, Replicate 3 | Neisseria lactamica 8, Replicate 3 | Neisseria lactamica 9, Consensus | Neisseria lactamica 9, Replicate 1 | Neisseria lactamica 9, Replicate 3 | Neisseria meningitidis gr 29E, Consensus | Neisseria meningitidis gr 29E, Replicate 1 | Neisseria meningitidis gr 29E, Replicate 3 | Neisseria mucosa 2, Replicate 1 | Neisseria mucosa 3, Replicate 3
1 µg/mL: Neisseria macacae 1, Replicate 1 | Neisseria macacae 4, Replicate 1 | Neisseria mucosa 4, Consensus
0.008 µg/mL: Neisseria meningitidis gr W, Consensus | Neisseria meningitidis gr W, Replicate 1 | Neisseria meningitidis gr W, Replicate 2 | Neisseria meningitidis gr W, Replicate 3 | Neisseria meningitidis gr Y, Consensus | Neisseria meningitidis gr Y, Replicate 2 | Neisseria meningitidis gr Y, Replicate 3

From paper PMC12446476 (Nature Communications, 2025)
